Assay: Aerosol performances by Next Generation Impactor (NGI)
Type: physicochemical
Protocol: The evaluation of the aerosol performances was carried out using the Next Generation Impactor (NGI) according to the conditions reported in the European Pharmacopeia 8.5th Ed 2015, par 2.9.18, pages 309-320. After aerosolization of 3 doses from the inhaler device, the NGI apparatus was disassembled and the amounts of drug deposited in the stages were recovered by washing with a 50:50 v/v water:acetonitrile mixture and then quantified by High-Performance Liquid Chromatography (HPLC). The following parameters, were calculated: i) the delivered dose which is the amount of drug delivered from the device recovered in the all parts of impactor; ii) the fine particle mass (FPM) which is the amount of delivered dose having a particle size equal to or lower than 5.0 micron; iii) the fine particle fraction (FPF) which is the ratio between the fine particle mass and the delivered dose; iv) the MMAD. The evaluation of the aerosol performances was performed as reported in Example 1. […]

[1] = Example 4 formulation, Multidose DPI
[2] = Example 4 formulation, Single Dose DPI (RS01)
[3] = Example 5 formulation, 1 mg single dose, single dose DPI RS01
[4] = Example 5 formulation, 4 mg single dose, single dose DPI RS01

Compound: COC(=O)C1=C(C)N(c2cccc(C(F)(F)F)c2)c2n[nH]c(=O)n2[C@@H]1c1ccc(C#N)cc1CC[N+](C)(C)C [CHF 6333]
- Fine Particle Fraction [1]: 41.7%
- Fine Particle Mass [1]: 0.8 mg
- MMAD [1]: 2.09 μm
- Delivered Dose (Example 4 formulation, Multidose DPI (WO 2016/000983)): 1.92 mg
- Fine Particle Fraction [2]: 77.1%
- Fine Particle Mass [2]: 1.18 mg
- MMAD [2]: 1.88 μm
- Delivered Dose (Example 4 formulation, Single Dose DPI (RS01 of Plastiape)): 1.53 mg
- Delivered Dose [3]: 0.81 mg
- Fine Particle Fraction [3]: 71.6%
- Fine Particle Mass [3]: 0.58 mg
- MMAD [3]: 2.15 μm
- Delivered Dose [4]: 2.88 mg
- Fine Particle Fraction [4]: 73.9%
- Fine Particle Mass [4]: 2.13 mg
- MMAD [4]: 1.85 μm

Compound: CCC(=O)OCC(=O)[C@@]1(OC(=O)CC)[C@@H](C)C[C@H]2[C@@H]3CCC4=CC(=O)C=C[C@]4(C)[C@@]3(Cl)[C@@H](O)C[C@@]21C [BDP, beclometasone dipropionate, reference compound]
- Delivered Dose (Example 1 formulation (3000 μg BDP per 10 mg shot), multidose DPI of WO 2016/000983, NGI, 3 doses): 2.16 mg
- MMAD (Example 1 formulation, multidose DPI): 2.26 μm
- Fine Particle Mass (Example 1 formulation, multidose DPI, particle size equal to or lower than 5.0 micron): 0.87 mg
- Fine Particle Fraction (Example 1 formulation, multidose DPI, ratio fine particle mass/delivered dose): 38.5%
